Measurements: BindingDB's records for patent US20240018157 (Schrödinger, 2024)
pIC50: −log10 of the molar value.

Molecular target: T1, Mucosa-associated lymphoid tissue lymphoma translocation protein 1 (Homo sapiens, UniProt Q9UDY8)
T1 sequence (Q9UDY8 whole entry): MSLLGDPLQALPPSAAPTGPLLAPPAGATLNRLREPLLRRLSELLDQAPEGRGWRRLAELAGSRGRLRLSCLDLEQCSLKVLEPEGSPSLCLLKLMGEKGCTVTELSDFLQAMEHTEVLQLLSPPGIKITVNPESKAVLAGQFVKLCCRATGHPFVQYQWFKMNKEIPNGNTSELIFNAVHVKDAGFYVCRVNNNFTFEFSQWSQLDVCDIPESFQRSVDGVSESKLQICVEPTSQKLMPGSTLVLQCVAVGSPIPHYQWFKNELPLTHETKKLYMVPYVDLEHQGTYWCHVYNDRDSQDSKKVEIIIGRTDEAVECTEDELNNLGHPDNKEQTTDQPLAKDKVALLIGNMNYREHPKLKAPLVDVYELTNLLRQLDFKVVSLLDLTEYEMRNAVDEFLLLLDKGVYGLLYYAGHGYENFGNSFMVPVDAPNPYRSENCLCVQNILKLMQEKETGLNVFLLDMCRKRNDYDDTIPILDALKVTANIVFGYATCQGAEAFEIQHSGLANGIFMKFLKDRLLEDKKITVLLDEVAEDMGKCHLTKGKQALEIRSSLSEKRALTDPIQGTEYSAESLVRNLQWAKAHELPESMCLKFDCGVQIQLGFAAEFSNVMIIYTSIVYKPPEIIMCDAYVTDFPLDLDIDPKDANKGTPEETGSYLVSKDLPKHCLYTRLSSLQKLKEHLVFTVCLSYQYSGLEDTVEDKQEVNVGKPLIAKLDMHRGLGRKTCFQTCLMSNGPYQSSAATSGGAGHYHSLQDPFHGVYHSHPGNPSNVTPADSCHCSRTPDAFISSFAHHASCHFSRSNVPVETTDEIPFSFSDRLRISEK
Assay: MALT1 Protease Assay 1
Protocol: The final assay buffer includes 2 nM of MALT1 full-length protein, 50 μM Ac-LRSR-AMC substrate, 50 mM Tris pH 7.5, 600 mM Sodium Citrate, 1 mM DTT, 1 mM EDTA, and 0.05% BSA in 384-well plate format using black microtiter square well plates (Optiplate 384-F, Perkin Elmer). Test compounds were dissolved in 100% DMSO at stock of 10 mM, with final DMSO concentration 0.1%. Test compounds were pre-incubated with MALT1 protein for 2 h at room temperature. Substrate was added after the pre-incubation and fluorescence signal was measured using Envision at excitation 355 nm and emission 460 nm after 8 hr incubation at RT. Increase in the assay signal was linear over this period and proportional with increase in the enzyme content.

| pIC50 | SMILES |
| --- | --- |
| > 8.00 | O=C(Nc1cnc(-n2nccn2)c(Cl)c1)N1CC(C(F)(F)F)c2c1cnc1cc(Cl)nn21 (stereo not given) [US20240018157, Example 2] |
| 7.00 to 8.00 | C[C@]1(C2CC2)CN(C(=O)Nc2cnc(-n3nccn3)c(Cl)c2)c2cnc3cc(Cl)nn3c21 [US20240018157, Example 3] |
| > 8.00 | C[C@@H]1CCN(C(=O)Nc2cnc(-n3nccn3)c(Cl)c2)c2cnc3cc(Cl)nn3c21 [US20240018157, Example 5] |
| 7.00 to 8.00 | C[C@H]1CCN(C(=O)Nc2cnc(-n3nccn3)c(Cl)c2)c2cnc3cc(Cl)nn3c21 [US20240018157, Example 6] |
| > 8.00 | CC1(C)CCN(C(=O)Nc2cnc(-n3nccn3)c(Cl)c2)c2cnc3cc(Cl)nn3c21 [US20240018157, Example 7] |
| > 8.00 | Cc1cc2ncc3c(n2n1)C(C(F)(F)F)CCN3C(=O)Nc1cnc(-n2nccn2)c(Cl)c1 (stereo not given) [US20240018157, Example 10] |
| 7.00 to 8.00 | CC1(C)c2c(cnc3cc(Cl)nn23)N(C(=O)Nc2cnc(-n3nccn3)c(Cl)c2)C[C@@H]1O [US20240018157, Example 11] |

Molecular target: T1, Mucosa-associated lymphoid tissue lymphoma translocation protein 1
Assay: MALT1 Protease Assay 2
Protocol: Test compounds were dissolved in 100% DMSO at stock of 10 mM, with final DMSO concentration 0.1%. Test compounds were pre-incubated with MALT1 protein for 2 h at room temperature.

| pIC50 | SMILES |
| --- | --- |
| 7.00 to 8.00 | Cc1nn2c3c(cnc2c1N)N(C(=O)Nc1cnc(-n2nccn2)c(Cl)c1)C[C@]3(C)C(F)(F)F [US20240018157, Example 159] |
| < 6.00 | Cc1nn2c3c(cnc2c1N)N(C(=O)Nc1cnc(-n2nccn2)c(Cl)c1)C[C@@]3(C)C(F)(F)F [US20240018157, Example 160] |
| 6.00 to 7.00 | Cc1nnc(C(F)F)cc1NC(=O)N1C[C@@](C)(C(F)(F)F)c2c1cnc1cc(F)nn21 [US20240018157, Example 161] |
| < 6.00 | CN1CC(n2nc(NC(=O)N3C[C@@](C)(C(F)(F)F)c4c3cnc3cc(Cl)nn43)cc2Cl)C1 [US20240018157, Example 163] |
| < 6.00 | C[C@@]1(C(F)(F)F)CN(C(=O)N[C@@H]2CCC(F)(F)C2)c2cnc3cc(Cl)nn3c21 [US20240018157, Example 165] |
| < 6.00 | C[C@@]1(C(F)(F)F)CN(C(=O)N[C@H]2CCC(F)(F)C2)c2cnc3cc(Cl)nn3c21 [US20240018157, Example 166] |
| < 6.00 | CN1CCOC(c2ncc(NC(=O)N3C[C@@](C)(C(F)(F)F)c4c3cnc3cc(Cl)nn43)cc2Cl)C1 (stereo not given in full) [US20240018157, Example 167] |
| < 6.00 | CN1CC(Nc2cc(NC(=O)N3C[C@@](C)(C(F)(F)F)c4c3cnc3cc(Cl)nn43)cc(C(F)(F)F)n2)C1 [US20240018157, Example 169] |
| < 6.00 | CC1(C)CC(NC(=O)N2C[C@@](C)(C(F)(F)F)c3c2cnc2cc(Cl)nn32)CCO1 (stereo not given in full) [US20240018157, Example 170] |
| < 6.00 | C[C@@]1(C(F)(F)F)CN(C(=O)N[C@@H]2CCCC[C@H]2O)c2cnc3cc(Cl)nn3c21 [US20240018157, Example 171] |
| < 6.00 | CC1CC(NC(=O)N2C[C@@](C)(C(F)(F)F)c3c2cnc2cc(Cl)nn32)CCO1 (stereo not given in full) [US20240018157, Example 173] |
| < 6.00 | C[C@@]1(C(F)(F)F)CN(C(=O)NC2CCC3(CCCO3)CC2)c2cnc3cc(Cl)nn3c21 (stereo not given in full) [US20240018157, Example 174] |
| < 6.00 | C[C@@]1(C(F)(F)F)CN(C(=O)n2nc(C(F)(F)F)cc2N)c2cnc3cc(Cl)nn3c21 [US20240018157, Example 175] |
| < 6.00 | Cc1cc(NC(=O)N2C[C@@](C)(C(F)(F)F)c3c2cnc2cc(Cl)nn32)nc2c1cnn2C [US20240018157, Example 176] |
| < 6.00 | CN1CC(Oc2cc(C(F)F)cc(NC(=O)N3C[C@@](C)(C(F)(F)F)c4c3cnc3cc(Cl)nn43)n2)C1 [US20240018157, Example 178] |
| < 6.00 | C[C@@]1(C(F)(F)F)CN(C(=O)Nc2cc(C(F)F)ns2)c2cnc3cc(Cl)nn3c21 [US20240018157, Example 179] |
| > 8.00 | C[C@@]1(C(F)(F)F)CN(C(=O)Nc2cnc(-n3nccn3)c(C(F)(F)F)c2)c2cnc3cc(F)nn3c21 [US20240018157, Example 181] |
| < 6.00 | C[C@]1(C(F)(F)F)CN(C(=O)Nc2cnc(-n3nccn3)c(C(F)(F)F)c2)c2cnc3cc(F)nn3c21 [US20240018157, Example 182] |
| 7.00 to 8.00 | C[C@H](O)c1cnnn1-c1ncc(NC(=O)N2C[C@@](C)(C(F)(F)F)c3c2cnc2cc(Cl)nn32)cc1C(F)F [US20240018157, Example 184] |
| < 6.00 | CNc1cc(NC(=O)N2C[C@@](C)(C(F)(F)F)c3c2cnc2cc(Cl)nn32)ncc1-n1nccn1 [US20240018157, Example 186] |

| pIC50 | SMILES |
| --- | --- |
| < 6.00 | CNc1cc(NC(=O)N2C[C@@](C)(C(F)(F)F)c3c2cnc2cc(Cl)nn32)cnc1-n1ccnn1 [US20240018157, Example 187] |
| 6.00 to 7.00 | C[C@]1(C(F)(F)F)CN(C(=O)Nc2cnnc(C(F)F)c2)c2cnc3cc(C#N)nn3c21 [US20240018157, Example 189] |
| < 6.00 | C[C@@]1(C(F)(F)F)CN(C(=O)Nc2cnnc(C(F)F)c2)c2cnc3cc(C#N)nn3c21 [US20240018157, Example 190] |
| > 8.00 | CC(O)c1cnn(-c2ncc(NC(=O)N3C[C@@](C)(C(F)(F)F)c4c3cnc3cc(F)nn43)cc2C(F)F)n1 (stereo not given in full) [US20240018157, Example 191] |
| < 6.00 | CNc1nc(NC(=O)N2C[C@@](C)(C(F)(F)F)c3c2cnc2cc(Cl)nn32)ccc1-n1nccn1 [US20240018157, Example 192] |
| < 6.00 | CCc1cc2ncc3c(n2n1)[C@@](C)(C(F)(F)F)CN3C(=O)Nc1cnnc(C(F)F)c1 [US20240018157, Example 194] |
| 7.00 to 8.00 | CCc1cc2ncc3c(n2n1)[C@](C)(C(F)(F)F)CN3C(=O)Nc1cnnc(C(F)F)c1 [US20240018157, Example 195] |
| < 6.00 | C[C@]1(C(F)(F)F)CN(C(=O)Nc2cnnc(C(F)F)c2)c2cnc3cc(CC(F)(F)F)nn3c21 [US20240018157, Example 196] |
| < 6.00 | C[C@@]1(C(F)(F)F)CN(C(=O)Nc2cnnc(C(F)F)c2)c2cnc3cc(CC(F)(F)F)nn3c21 [US20240018157, Example 197] |
| < 6.00 | C[C@]1(C(F)(F)F)CN(C(=O)Nc2cnnc(C(F)F)c2)c2cnc3cc(OC(F)F)nn3c21 [US20240018157, Example 199] |
| < 6.00 | C[C@@]1(C(F)(F)F)CN(C(=O)Nc2cnnc(C(F)F)c2)c2cnc3cc(OC(F)F)nn3c21 [US20240018157, Example 200] |
| > 8.00 | O=C(Nc1cnc(-n2nccn2)c(Cl)c1)N1CC(O)(C(F)(F)F)c2c1cnc1cc(Cl)nn21 (stereo not given) [US20240018157, Example 201] |
| 7.00 to 8.00 | C[C@]1(C(F)F)CN(C(=O)Nc2cnc(OC(F)F)c(Cl)c2)c2cnc3cc(Cl)nn3c21 [US20240018157, Example 204] |
| > 8.00 | C[C@@]1(C(F)F)CN(C(=O)Nc2cnc(OC(F)F)c(Cl)c2)c2cnc3cc(Cl)nn3c21 [US20240018157, Example 205] |
| < 6.00 | Cc1cn2ncc3c(c2n1)C(C)(C)CN3C(=O)Nc1cnc(C(=O)N(C)C)c(Cl)c1 [US20240018157, Example 206] |
| < 6.00 | COC1CN(C(=O)c2ncc(NC(=O)N3CC(C)(C)c4c3cnn3cc(C)nc43)cc2Cl)C1 [US20240018157, Example 207] |
| < 6.00 | Cc1cn2ncc3c(c2n1)C(C)(C)CN3C(=O)Nc1cnc(C(=O)N2CC(O)C2)c(Cl)c1 [US20240018157, Example 208] |
| < 6.00 | C[C@@]1(C(F)(F)F)CN(C(=O)Nc2cnc(C3COC3)c(Cl)c2)c2cnc3cc(Cl)nn3c21 [US20240018157, Example 209] |
| < 6.00 | Cn1cc([C@]2(C(F)(F)F)CN(C(=O)Nc3cnnc(C(F)F)c3)c3cnc4cc(Cl)nn4c32)cn1 [US20240018157, Example 210] |
| 7.00 to 8.00 | Cn1cc([C@@]2(C(F)(F)F)CN(C(=O)Nc3cnnc(C(F)F)c3)c3cnc4cc(Cl)nn4c32)cn1 [US20240018157, Example 211] |

| SMILES | pIC50 |
| --- | --- |
| C[C@@]1(C(F)(F)F)CN(C(=O)Nc2cnc(C3(O)CCC3)c(Cl)c2)c2cnc3cc(Cl)nn3c21 [US20240018157, Example 168] | < 6.00 |
| C[C@@]1(C(F)(F)F)CN(C(=O)n2nc(C(F)F)cc2N)c2cnc3cc(Cl)nn3c21 [US20240018157, Example 177] | < 6.00 |
| C[C@@]1(C(F)(F)F)CN(C(=O)Nc2cc(Cl)c(C(=O)O)c(O[C@H]3CCNC3)n2)c2cnc3cc(Cl)nn3c21 [US20240018157, Example 185] | < 6.00 |
